“Also recorded” adds a separate entry of the source.
What was measured:
[1] = test system: PI3Kδ signalling in basophils; test: Assay 4: Inhibition of PI3Kδ signalling in basophils from human whole blood (anti-FcεR1 induced CD63 expression); conditions: read-out: EC50, inhibition of anti-FcεR1 mediated CD63 expression
Procedure: PI3Kδ signalling in basophils manifested by an alteration of anti-FcεR1 induced CD63 expression is a useful pharmacodynamic marker determined using the Flow2CAST® kit (Buhlmann Laboratories, Switzerland). Briefly, it involves the following steps: • Mix the anti-coagulated blood sample by inverting the venipuncture tube several times • Prepare fresh and pyrogen-free 3.5 ml polypropylene or polystyrene tubes suitable for Flow Cytometry measurements • Add 49 μl of patient's whole blood to each tube. • Add 1 μl of 10% DMSO (background) or compound (10% DMSO) to the assigned tubes and mix gently. Incubate at room temperature for 15 min • Pipette 50 μl of the Stimulation buffer (background) or anti-FcεRI Ab to each tube • Add 100 μl of Stimulation Buffer to each tube • Mix gently. […] (using an incubator will take about 10 minutes longer incubation time due to less efficient heat transfer) • Add 2 ml pre-warmed (18-28° C.) Lysing Reagent to each tube, mix gently • Incubate for 5-10 minutes at 18-28° C. • Centrifuge the tubes for 5 minutes at 500×g • Decant the supernatant by using blotting paper • Resuspend the cell pellet with 300-800 μl of Wash Buffer • Vortex gently and acquire the data on the flow cytometer within the same day. • Percent CD63 positive cells within the gated basophil population are to be determined in different treatment groups and normalized to vehicle control.

[2] = test system: AKT phosphorylation in THP-1, HL-60, MOLT-4, RPMI-8226, or DLBCL cells; test: Assay 3: Inhibition of AKT phosphorylation in leukemic cell lines; assay type: cell-based; conditions: 48 hours, Western Blotting
Procedure: Inhibition of AKT phosphorylation in leukemic cell lines: THP-1, HL-60, MOLT-4, RPMI-8226, or DLBCL cells were incubated with desired concentrations of compound for 48 hours. Cells were lysed and pAKT was determined by Western Blotting. Bands were quantified using ImageJ and normalized to actin.

[3] = test system: leukemic cells; test: Assay 5: Apoptosis in leukemic cell lines (in situ Caspase 3 kit); assay type: cell-based; conditions: 24 hrs
Procedure: Apoptosis in leukemic cells was determined using an in situ Caspase 3 kit (Millipore, US) as outlined below: • Seed leukemic cells at a density of 1×10^6 cells/well in a 6 well plate • Add test compound/DMSO at desired concentrations • Incubate the plate for 24 hrs at 37° C. in 5% CO2 incubator • Collect cells in a 2 ml centrifuge tube • Add 1.6 μL of freshly prepared 5× FLICA reagent and mix cells by slightly flicking the tubes • Incubate tubes for 1 hour at 37° C. under 5% CO2 • Add 2 ml of 1× wash buffer to each tube and mix • Centrifuge cells at <400×g for 5 minutes at room temperature. • Carefully remove and discard supernatant, and gently vortex cell pellet to disrupt any cell-to-cell clumping. • Resuspend cell pellet in 300 ul of 1× wash buffer • Place 100 μL of each cell suspension into each of two wells of a black microtiter plate. Avoid creation of bubbles. • Read […] of each microwell using an excitation wavelength of 490 nm and an emission wavelength of 520 nm • Percent increase in caspase-3 activity manifested by an increase in fluorescence compared to the control blank is to be calculated.

[4] = Metabolic stability in rat liver microsomes; assay type: in vitro ADME; conditions: 1 μM test item, 60 minutes, NADPH
Procedure: (§1) Metabolic stability studies were conducted using mouse, rat, and human liver microsomes. The protocol for the studies with mouse, rat, and human liver microsomes (all from BD Gentest, USA) is provided below. In brief, 0.4 mg protein was preincubated with 2 mM NADPH (cofactor) in phosphate buffer (pH˜7.4) for 15 min at 37° C. and then added with 1 μM test item and incubated further for 60 minutes in triplicate. The reaction mixture was terminated with methanol containing an internal standard and centrifuged further to analyze the test item remaining in the supernatant by LC-MS/MS. The percent parent compound remaining was calculated in comparison with similar samples terminated at 0 minutes.

[5] = test system: AML patient bone marrow leukemic cells; test: Assay 6-I: Flow cytometry analysis of apoptotic induction in AML patient bone marrow leukemic cells; assay type: cell-based, human
Procedure: 6-I: Flow cytometry analysis of apoptotic induction in AML patient bone marrow leukemic cells upon compound treatment using Annexin V and 7-AAD staining: Mononuclear cells were extracted by the Ficoll method and seeded in plates. The cells were treated by different compounds for 48 hrs before they were analyzed by flow cytometry. After washing with PBS, 1×10^5 cells were stained by Annexin V-APC and 7-AAD. Annexin V positive staining measures total apoptotic cells, including early and late apoptotic cells. For Annexin V positive cells, 7-AAD negative signal reflects early apoptotic cells.

[6] = test system: immortalized leukemic cells (B, T, and monocytic cell lines); test: Assay 7: Screening for anticancer activity in various leukemic cell lines (MTT); assay type: cell-based; conditions: majority of B, 72-96 h, read-out: concentration for 50% growth inhibition
Procedure: Proliferation of immortalized leukemic cells representative of various indications was determined by a MTT (3-(4,5-Dimethylthiazol-2-yl)-2,5-diphenyl tetrazolium bromide) assay.

[7] = test system: Primary CLL cells; test: Assay 8: Screening for anticancer activity in human CLL cells; assay type: cell-based
Procedure: After 72 hours of incubation, CLL cells were evaluated for cytotoxicity using the colorimetric MTS reagent. Phosphorylated Akt (S473) was measured by flow cytometry after one hour of incubation of test compound and ten minutes of incubation with anti-IgM or anti-IgD. Akt phosphorylation was quantified by median fluorescent intensity (MFI). Of the seven CLL patient samples used for experiments, five had mutated IGHV, five had 13 q deletion or normal cytogenetics determined by fluorescent in situ hybridization, three were ZAP-70 negative, and seven were CD38 negative. IgM expression ranged between 13% and 90%, whereas IgD expression was uniformly elevated.

[8] = test system: Human Multiple Myeloma Cells; test: Assay 6a: Screening for anticancer activity in human multiple myeloma cells; assay type: cell-based; conditions: primary multiple myeloma patient cells
Procedure: Samples were taken from two patients with newly diagnosed stage II IgG Kappa and stage III IgG Lambd restricted disease. This screening was performed by inducing apoptosis using doses and times determined from the MTT assay. 1-5×10^5 cells were collected by centrifugation. The cells were re-suspended in 500 μl of 1× Binding Buffer. 5 μl of Annexin V-FITC and 5 μl of propidium iodide were added. The cells were incubated at room temperature for 5 minutes in the dark.
Quantification by flow cytometry: Annexin V-FITC binding was analyzed by flow cytometry (Ex=488 nm; Em=530 nm) using FITC signal detector (usually FL1) and PI staining using a phycoerythrin emission signal detector (usually FL2). The results are shown below and in FIG. 1.

[9] = test system: AML patient bone marrow leukemic cells; test: Assay 6-III: Cell proliferation analysis of AML patient bone marrow sample (MTS); assay type: cell-based, human
Procedure: 6-III: Cell proliferation analysis of AML patient bone marrow sample using MTS assay: Mononuclear cells were extracted by the Ficoll method and seeded in plates. The cells were treated by different compounds for 48 hrs and 72 hrs before they were analyzed by MTS assay following product instruction. Briefly, 20 μL of the MTS solution was added into each well containing the 100 μL cell suspension, followed by incubation for 4 hours at 37° C., in 95% humidity with presence of 5% CO2. The absorbance of 490 nm (A490) was read using SpectraMAX Plus microplate spectrophotometer.

[10] = Metabolic stability in human liver microsomes; assay type: in vitro ADME; conditions: 1 μM test item, 60 minutes, NADPH
Procedure: as §1

[11] = test system: pAKT in AML patient bone marrow leukemic cells; test: Assay 6-II: pAKT analysis of AML patient bone marrow sample (pAKT ELISA); assay type: cell-based, human
Procedure: 6-II: pAKT analysis of AML patient bone marrow sample using pAKT ELISA kit: Mononuclear cells were extracted by the Ficoll method and seeded in plates. The cells were treated by different compounds for 48 hrs before they were analyzed by pAKT ELISA kit following the product protocol. Briefly, 1×10^6 cells were transferred into an ELISA kit well and lyzed with 10 μL 5× Cell Lysis Mix (phospho-AKT 1/2/3 (Ser473) InstantOne™ ELISA Kit, eBioscience, 85-86042). The cells were then incubated with 50 μl antibody cocktail for 1 hr at room temp. on a microplate shaker (˜300 rpm). After incubating with detection reagent, the result was measured using a SpectraMAX Plus microplate spectrophotometer set at 450 nm.

[12] = Metabolic stability in mouse liver microsomes; assay type: in vitro ADME; conditions: 1 μM test item, 60 minutes, NADPH
Procedure: as §1

## CC(C)Oc1ccc(-c2nn([C@@H](C)c3oc4ccc(F)cc4c(=O)c3-c3cccc(F)c3)c3ncnc(N)c23)cc1F [Compound B1, (S)-2-(1-(4-amino-3-(3-fluoro-4-isopropoxyphenyl)-1H-pyrazolo[3,4-d]pyrimidin-1-yl)ethyl)-6-fluoro-3-(3-fluorophenyl)-4H-chromen-4-one]
[1]
  EC50: ≤ 100 nM
[2]
  inhibition at 1 µM: 50 to 90%
[3]
  Caspase-3 activity: dose-dependently induced Caspase-3 activity
[4]
  Metabolic stability in liver microsomes, Rat (percent parent compound remaining): 23.1%
[5]
  number of apoptotic cells: concomitant increase in the number of apoptotic cells
[6]
  IC50: 0.5 to 7.5 µM
[7]; 48 hours, 0.1 and 25.6 μM
  apoptosis (caspase-3+/7AAD+): significantly induced apoptosis
[7]; 72 hours, 0.1 and 25.6 μM
  cytotoxicity (MTS): significantly induced
[7]; one hour compound, anti-IgM or anti-IgD, flow cytometry MFI
  Akt phosphorylation (S473) induced by anti-surface immunoglobulin: significantly abrogated this effect and returned Akt phosphorylation to baseline
[8]; Homo sapiens, Multiple myeloma cell, 3.0 μM, read-out: inhibition of PAKT
  inhibition at 3 µM: > 75%
[8]
  cell viability: Dose dependent reduction in cell viability.
[9]
  cell viability / proliferation: dose dependent reduction in proliferation; also recorded: Dose dependent reduction in cell viability
[10]
  Metabolic stability in liver microsomes, Human (percent parent compound remaining): 74.9%
[11]
  AKT phosphorylation (dose dependence): dose dependent reduction
[11]; Homo sapiens, Bone marrow cell, 0.3 μM, 48 hrs
  inhibition at 0.3 µM: > 50%
[12]
  Metabolic stability in liver microsomes, Mouse (percent parent compound remaining): 36.6%
